# Paper PMC9387934, “Randomized single oral dose phase 1 study of safety, tolerability, and pharmacokinetics of Iminosugar UV-4 Hydrochloride (UV-4B) in healthy subjects” (PLoS Neglected Tropical Diseases, 2022)
# Where a name gives a salt, the structure may show the parent alone. Read-outs that look alike come from different tables or passages of the source.
# Legend:
# [1] = Prediction of human clearance and exposure by scaling of IV PK data from mouse, rat and dog against body weight
# Method: Pharmacokinetic parameters seen in the Phase 1a study were compared to exposure and clearance data collected in animal studies to determine if consistent parameters are observed across species (detailed ADME and PK assessment in non-human species will be described in a manuscript in preparation). Nonclinical PK and excretion studies of UV-4 as the hydrochloride salt and UV-4 free base were conducted using the oral and IV routes of administration as single doses in mice, rats, ferrets, and dogs. […] Absorption was rapid following oral administration in each nonclinical species, in alignment with the median Tmax of 0.5 to 1 hour across all dose groups in the Phase 1a study.
# [2] = dog; cited from earlier work
# [3] = design: method as in Investigator’s Brochure (IB); settings: 50 mg/kg/day for 12 days; ref Investigator’s Brochure (IB); cited from earlier work
# [4] = cited from earlier work
# [5] = cited from earlier work; remark: listed apart in the source
# [6] = in vitro; ref Investigator’s Brochure (IB); cited from earlier work
# [7] = ICH accelerated stability storage condition; cited from earlier work
# [8] = Seven-day repeat dose non-GLP study in rats (UV4-COV-0045); type: in vivo, rat; settings: for a 60 kg human
# Method: The seven-day repeat dose study in rats was conducted at 10 mg/kg/dose TID (30 mg/kg/day), 25 mg/kg/dose TID (75 mg/kg/day), and 60 mg/kg/dose TID (180 mg/kg/day).
# At 10 mg/kg/dose, mild to moderate clinical hematology and clinical chemistry changes and histopathological changes in the gastrointestinal tract (GI) similar to dogs and mice were observed; therefore this dose exceeded the no observed effect level (NOEL). At […]
# 60 mg/kg/dose there were similar findings to mice and dogs but a unique finding of possible […]
# skin, paws and/or feet. These findings appeared within 120 minutes of treatment with the first or second daily dose 60 mg/kg/dose (TID) on Day 1 or Day 2. This response was transient and self-limiting, and was not observed after Day 2 in either the single or repeated doses. […]
# The inverted AST/ALT ratio […]
# and lymphocyte depletion were reversible. Thymus weight decrease in females was reversible but thymus weight decreases in males were not. However, because the apparent […]
# microscopic thymus findings, thymus weight differences at the recovery necropsy were considered not toxicologically important. In mice at 25 mg/kg/dose (75 mg/kg/day) there were decreased thymus weights (males), follicular epithelium vacuolation in the thyroid, and lymphoid depletion of the thymus (males). […]
# Daily exposure [calculated as 3 x AUC(0-8)] is estimated at 32,820 ng•h/mL. […]
# [9] = mice, Day 14, at NOAEL 300 mg/kg/day, ref Investigator’s Brochure (IB)
# [10] = mouse, 25 TID mg/kg, Day 28 (Recovery)
# [11] = mouse, 25 TID mg/kg, dosing phase (Day 14)
# [12] = mouse, 100 TID mg/kg (NOAEL), Day 28 (Recovery)
smiles,measurement,setting,value
"COCCCCCCCCCN1C[C@H](O)[C@@H](O)[C@H](O)[C@H]1CO [UV-4, N-(9’-methoxynonyl)-1-deoxynojirimycin]",clearance,"[1]; human, simple scaling of systemic clearance against body weight, IV PK data of mouse, rat and dog, read-out: Human systemic clearance, estimated (converted)",560 mL/min
same,"Total exposure (AUC(0-inf)), predicted","[1]; starting dose of 3 mg, from scaled clearance",89 ng·h/mL
"COCCCCCCCCCN1C[C@H](O)[C@@H](O)[C@H](O)[C@H]1CO [UV-4B, N-(9’-methoxynonyl)-1-deoxynojirimycin hydrochloride]",Dose with decreased PLTs,[2],"2 mg/kg/dose, TID"
same,Dose with decreased arterial pulse pressure,[2],> 50 mg/kg
same,Dose with decreased reticulocytes,[2],"10 mg/kg/dose, TID"
same,Dose with decreased systolic pressure,[2],> 50 mg/kg
same,Dose with decreased thymus weight,[2],"≥ 2 mg/kg/dose, TID"
same,Dose with increased ALT,[2],"≥ 2 mg/kg/dose, TID"
same,Dose with increased AST,[2],"≥ 2 mg/kg/dose, TID"
same,Dose with increased aPTT,[2],"≥ 10 mg/kg/dose, TID"
same,Dose with increased diastolic pressure,[2],> 50 mg/kg
same,Dose with inverted AST/ALT ratio,[2],"10 mg/kg/dose, TID"
same,"Dose with lymphocyte depletion in thymus, spleen, lymph nodes, and GALT",[2],"≥ 2 mg/kg/dose, TID"
same,Dose with nonformed feces,[2],"≥ 10 mg/kg/dose, TID"
same,Dose with salivation and vomitus,[2],"60 mg/kg/dose, TID"
same,Neurologic Effects,[2],none observed
same,Finding in rat offspring,[3],increase in skeletal malformations
same,No clinically relevant effects,"[4]; dog CV single dose, 10 mg/kg",−
same,Cardiovascular assessment,"[4]; dogs, 10 mg/kg, ref Investigator’s Brochure (IB)",no clinically relevant effects
same,"Cardiovascular assessment, only change outside the normal range","[4]; dogs, 50 or 200 mg/kg, ref Investigator’s Brochure (IB)",decreased arterial pulse pressure
same,NOAEL,"[5]; mice, 14 days of TID administration, ref Investigator’s Brochure (IB)",300 mg/kg/day
same,No observed effect level (NOEL),"[5]; mice, 14 days, a NOEL was not present at this dose level, ref Investigator’s Brochure (IB)",< 25 mg/kg/dose
same,AUC(0-8),[5]; [9],"54,435 ng•h/mL"
same,Mean Cmax,[5]; [9],"32,617 ng/mL"
same,Decreased thymus weight (M),[5]; [10],−
same,Follicular epithelium vacuolation in thyroid,[5]; [10],−
same,Lymphoid depletion of the thymus (M),[5]; [10],−
same,Decreased thymus weight (M),[5]; [11],↓ (M)
same,Lymphoid depletion of the thymus (M),[5]; [11],P (M)
same,"Decrease in red cell mass (RBC Count, HGB, and HCT)",[5]; [12],−
same,Decrease in thymus weight,[5]; [12],−
same,Follicular epithelium vacuolation in thyroid,[5]; [12],−
same,Lymphoid depletion in thymus,[5]; [12],−
same,Neutrophilic infiltration and erosion/ulcer rectum (F),[5]; [12],−
same,"Mutagenicity, Ames bacterial reverse mutation (two assays)",[6],not found to be mutagenic or clastogenic
same,Stability trend of drug substance batches,[7],increases in water content
same,HED of 60 mg/kg/dose in rats,[8],580 mg
